Data reported in patent US20260306640A1, “TECHNOLOGIES TARGETING CELL STATES” (Auron Therapeutics, Inc., priority 2023, published 2026).

Legend:
Type in all cases: cell-based
[1] = molecular target: KAT2B (Homo sapiens, UniProt Q92831); assay: KAT2B degradation, Western Blot (Jess), NCI-H1048 cells; set-up: degrader, Western blot (Jess); conditions: NCI-H1048 cells, KAT2B, 24 h, Western Blot, vs DMSO; read-out: KAT2B NCI-H1048 DC50
Method in brief: (§1)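 NCI-H1048 cells grown in HITES medium with 5% FBS were treated with compounds for 24 h at 37° C. Lysates were run by capillary Western (Jess) with KAT2A or KAT2B antibodies and chemiluminescent detection. DC50 derived from percent protein reduction versus DMSO control.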

[2] = molecular target: T1, KAT2A (Homo sapiens, UniProt Q92830); assay: KAT2A degradation, Western Blot (Jess), NCI-H1048 cells; set-up: degrader, Western blot (Jess); conditions: NCI-H1048 cells, KAT2A, 24 h, Western Blot, vs DMSO; read-out: KAT2A NCI-H1048 DC50
Method in brief: as §1

[3] = system: MOLM-13 cells; assay: Cell growth inhibition, AML cell line MOLM-13 (CyQuant, day 7); conditions: Homo sapiens, 168 h; MOLM-13, day 7, CyQuant; read-out: MOLM13 GI50
Description: Among other things, provided technologies are useful for treating various diseases, disorders, or conditions. For example, in some embodiments, provided technologies are useful for treating cancer as confirmed in the present Example. […] In some embodiments, provided technologies can inhibit cell proliferation. In some embodiments, the present disclosure provides technologies for assessing various technologies, e.g., compounds, compositions, or methods. Among other things, the present Example provides technologies, e.g., cell growth inhibition assay, for assessing various technologies. […] In some embodiments, the following cell growth inhibition methods are utilized to assess provided technologies.
AML: AML cell line MOLM-13 cells were cultured in RPMI+15% FBS and were plated at 500 cells/well in 100 uL media in a U-bottom 96-well plate. Compounds were dilute to 3×final in full media and 50 uL were added to corresponding wells. Compound and media were replenished on days 2 and 5. On day 7, cells were transferred to a 96-well black bottom plate and CyQuant was performed per manufacturer's instructions.
In some assessments, for cell growth inhibition, cells, e.g., MOLM13, NCI-H1048, and LASCPC-01 cells, were counted using a hemocytometer or automated cell counting in triplicates. In some assessments, proliferation in NEPC organoids as measured with Cell Titer Glo reagent (Promega). Growth inhibition was determined relative to vehicle control.

[4] = molecular target: T1, KAT2A; assay: KAT2A degradation, Western Blot (Jess), MOLM-13 cells; set-up: degrader, Western blot; conditions: MOLM-13 cells, KAT2A, 24 h, Western Blot, vs DMSO; read-out: KAT2A MOLM-13 DC50
Method in brief: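 MOLM-13 cells in RPMI 1640/20% FBS were treated with compound for 24 h at 37 °C. RIPA lysates (4 μg) were run on a capillary Western (Jess) with anti-KAT2A antibody and chemiluminescent detection. DC50 comes from percent protein reduction versus DMSO control.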

T1 sequence (Q92830 whole entry): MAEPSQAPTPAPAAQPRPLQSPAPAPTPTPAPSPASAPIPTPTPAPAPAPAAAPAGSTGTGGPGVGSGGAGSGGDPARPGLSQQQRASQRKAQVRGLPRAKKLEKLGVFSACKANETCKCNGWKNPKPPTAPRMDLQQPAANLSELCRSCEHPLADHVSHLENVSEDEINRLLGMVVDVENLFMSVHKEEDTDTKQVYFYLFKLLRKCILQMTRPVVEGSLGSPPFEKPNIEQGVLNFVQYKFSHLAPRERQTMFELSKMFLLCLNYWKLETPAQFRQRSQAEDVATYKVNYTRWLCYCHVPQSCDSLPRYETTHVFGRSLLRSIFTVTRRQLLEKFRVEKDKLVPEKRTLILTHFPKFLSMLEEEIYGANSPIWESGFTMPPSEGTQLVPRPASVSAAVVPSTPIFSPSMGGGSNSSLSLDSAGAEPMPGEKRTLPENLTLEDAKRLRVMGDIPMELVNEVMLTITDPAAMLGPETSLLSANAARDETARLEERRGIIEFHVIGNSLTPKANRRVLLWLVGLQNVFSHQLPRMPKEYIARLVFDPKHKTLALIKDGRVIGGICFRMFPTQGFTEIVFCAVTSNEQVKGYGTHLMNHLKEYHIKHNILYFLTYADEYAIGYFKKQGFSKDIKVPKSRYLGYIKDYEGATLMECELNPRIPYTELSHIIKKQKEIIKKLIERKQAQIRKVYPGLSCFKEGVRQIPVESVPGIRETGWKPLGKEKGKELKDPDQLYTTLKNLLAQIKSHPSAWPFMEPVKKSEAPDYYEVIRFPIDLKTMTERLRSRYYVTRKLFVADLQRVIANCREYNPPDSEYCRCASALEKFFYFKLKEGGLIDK
Chain of KAT2B (Q92831 whole entry): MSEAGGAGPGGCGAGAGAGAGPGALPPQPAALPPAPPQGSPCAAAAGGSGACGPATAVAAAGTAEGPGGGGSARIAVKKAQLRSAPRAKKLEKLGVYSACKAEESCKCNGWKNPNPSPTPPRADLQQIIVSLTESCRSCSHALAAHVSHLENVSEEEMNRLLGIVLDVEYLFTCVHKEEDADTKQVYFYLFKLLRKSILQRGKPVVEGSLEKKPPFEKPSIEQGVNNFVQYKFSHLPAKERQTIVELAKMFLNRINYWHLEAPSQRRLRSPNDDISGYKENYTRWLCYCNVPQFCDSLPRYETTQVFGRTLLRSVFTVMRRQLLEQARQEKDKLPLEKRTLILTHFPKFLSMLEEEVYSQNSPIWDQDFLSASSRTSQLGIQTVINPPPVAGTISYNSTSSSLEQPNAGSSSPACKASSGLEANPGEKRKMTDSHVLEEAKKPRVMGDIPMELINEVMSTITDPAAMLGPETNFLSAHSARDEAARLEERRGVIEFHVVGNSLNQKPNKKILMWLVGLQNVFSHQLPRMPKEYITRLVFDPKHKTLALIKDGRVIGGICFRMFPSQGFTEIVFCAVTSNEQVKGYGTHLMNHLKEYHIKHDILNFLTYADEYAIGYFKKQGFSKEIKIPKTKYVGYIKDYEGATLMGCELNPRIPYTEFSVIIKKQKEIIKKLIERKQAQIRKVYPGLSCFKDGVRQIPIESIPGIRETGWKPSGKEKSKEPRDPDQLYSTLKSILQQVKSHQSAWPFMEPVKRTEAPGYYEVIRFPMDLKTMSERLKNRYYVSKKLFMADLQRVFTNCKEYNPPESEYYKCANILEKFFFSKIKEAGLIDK

SMILES: CN1C[C@H](Nc2cnn(C)c(=O)c2Br)C[C@H](c2ccc(C(=O)N3CCC4(CC3)CCN(c3ccc(C5CCC(=O)NC5=O)cc3)CC4)cc2)C1 (single isomer, unassigned) [Compound 240]
- DC50 [1]: < 1 nM
- DC50 [2]: < 1 nM
- GI50 [3]: 3.9 nM

SMILES: CN1C[C@H](Nc2cnn(C)c(=O)c2Cl)C[C@H](c2ccc(C(=O)N3CCC4(CC3)CCN(c3ccc(C5CCC(=O)NC5=O)cn3)CC4)cc2)C1 (stereo partly drawn) [Compound 2-52]
- DC50 [1]: < 1 nM
- DC50 [2]: < 1 nM
- GI50 [3]: 0.4 nM

SMILES: CN1C[C@H](Nc2cnn(C)c(=O)c2Br)C[C@H](c2ccc(COc3ccc4c(c3)C(=O)N(C3CCC(=O)NC3=O)C4=O)cc2)C1 (stereo partly drawn) [Compound 39]
- DC50 [1]: 1 to 30 nM
- DC50 [4]: < 1 nM
- DC50 [2]: < 1 nM
- GI50 [3]: 5.6 nM

SMILES: CN1C[C@H](Nc2cnn(C)c(=O)c2Br)C[C@H](c2ccc(C(=O)N3CCC(CN4CCN(c5ccc6c(c5)C(=O)N(C5CCC(=O)NC5=O)C6=O)CC4)CC3)cc2)C1 (stereo partly drawn) [Compound 40]
- DC50 [4]: < 1 nM
- GI50 [3]: 7.8 nM

SMILES: CN1C[C@H](Nc2cnn(C)c(=O)c2Br)C[C@H](c2ccc(CN3CCN(c4cccc([C@H]5CCC(=O)NC5=O)c4)CC3)cc2)C1 [Compound 84, 3-[3-[4-[[4-[(3R,5R)-5-[(5-bromo-1-methyl-6-oxo-pyridazin-4-yl)amino]-1-methyl-3-piperidyl]phenyl]methyl]piperazin-1-yl]phenyl]piperidine-2,6-dione]
- DC50 [1]: 1 to 30 nM
- DC50 [4]: < 1 nM
- DC50 [2]: < 1 nM
- GI50 [3]: 1.1 nM

SMILES: CN1C[C@H](Nc2cnn(C)c(=O)c2Cl)C[C@H](c2ccc(C(=O)N3CCC4(CC3)CCN(c3ccc(C5CCC(=O)NC5=O)cc3)CC4)cc2)C1 (stereo partly drawn) [Compound 145, 3-[4-[3-[4-[(3R,5R)-5-[(5-chloro-1-methyl-6-oxo-pyridazin-4-yl)amino]-1-methyl-3-piperidyl]benzoyl]-3,9-diazaspiro[5.5]undecan-9-yl]phenyl]piperidine-2,6-dione]
- DC50 [1]: < 1 nM
- DC50 [4]: < 1 nM
- DC50 [2]: < 1 nM
- GI50 [3]: 1 nM

SMILES: CN1C[C@H](Nc2cnn(C)c(=O)c2Br)C[C@H](c2ccc(C(=O)N3CCC4(CC3)CCN(c3ccc(C5CCC(=O)NC5=O)cc3F)CC4)cc2)C1 (stereo partly drawn) [Compound 146]
- DC50 [1]: < 1 nM
- DC50 [4]: < 1 nM
- DC50 [2]: < 1 nM
- GI50 [3]: 5.9 nM

SMILES: CN1C[C@H](Nc2cnn(C)c(=O)c2Br)C[C@H](c2ccc(C(=O)N3CCC4(CC3)CCN(c3ccc(C5CCC(=O)NC5=O)c(F)c3)CC4)cc2)C1 (stereo partly drawn) [Compound 157, 3-[4-[3-[4-[(3R,5R)-5-[(5-bromo-1-methyl-6-oxo-pyridazin-4-yl)amino]-1-methyl-3-piperidyl]benzoyl]-3,9-diazaspiro[5.5]undecan-9-yl]-2-fluoro-phenyl]piperidine-2,6-dione]
- DC50 [1]: < 1 nM
- DC50 [4]: < 1 nM
- DC50 [2]: < 1 nM
- GI50 [3]: 0.9 nM

SMILES: Cc1cc(N2CCC3(CCN(C(=O)c4ccc([C@H]5C[C@@H](Nc6cnn(C)c(=O)c6Br)CN(C)C5)cc4)CC3)CC2)ccc1C1CCC(=O)NC1=O (stereo partly drawn) [Compound 167]
- DC50 [1]: < 1 nM
- DC50 [4]: < 1 nM
- DC50 [2]: < 1 nM
- GI50 [3]: 4.8 nM

SMILES: Cc1c(N[C@@H]2C[C@H](c3ccc(C(=O)N4CCC5(CC4)CCN(c4ccc(C6CCC(=O)NC6=O)cc4)CC5)cc3)CN(C)C2)cnn(C)c1=O (stereo partly drawn) [Compound 186]
- DC50 [1]: < 1 nM
- DC50 [4]: < 1 nM
- DC50 [2]: < 1 nM

SMILES: Cc1c(N[C@@H]2C[C@H](c3ccc(CN4CCN(c5cccc(C6CCC(=O)NC6=O)c5)CC4)cc3)CN(C)C2)cnn(C)c1=O (stereo partly drawn) [Compound 187]
- DC50 [1]: 1 to 30 nM
- DC50 [4]: < 1 nM
- DC50 [2]: < 1 nM

SMILES: Cc1c(N[C@@H]2C[C@H](c3ccc(CN4CCC(Oc5ccc(C6CCC(=O)NC6=O)cc5)CC4)cc3)CN(C)C2)cnn(C)c1=O (stereo partly drawn) [Compound 188]
- DC50 [1]: > 30 nM
- DC50 [4]: < 1 nM
- DC50 [2]: < 1 nM

SMILES: CN1C[C@H](Nc2cnn(C)c(=O)c2Cl)C[C@H](c2ccc(C(=O)N3CCC4(CC3)CCN(c3ccc5c(C6CCC(=O)NC6=O)nn(C)c5c3)CC4)cc2)C1 (stereo partly drawn) [Compound 208, 3-[6-[3-[4-[(3R,5R)-5-[(5-chloro-1-methyl-6-oxo-pyridazin-4-yl)amino]-1-methyl-3-piperidyl]benzoyl]-3,9-diazaspiro[5.5]undecan-9-yl]-1-methyl-indazol-3-yl]piperidine-2,6-dione]
- DC50 [1]: < 1 nM
- DC50 [2]: < 1 nM
- GI50 [3]: 0.3 nM

SMILES: Cc1cc(N2CCC3(CCN(C(=O)c4ccc([C@H]5C[C@@H](Nc6cnn(C)c(=O)c6C)CN(C)C5)cc4)CC3)CC2)ccc1C1CCC(=O)NC1=O (stereo partly drawn) [Compound 219]
- DC50 [1]: < 1 nM
- DC50 [2]: < 1 nM
- GI50 [3]: 5.9 nM

SMILES: Cc1cc(N2CCC3(CCN(C(=O)c4ccc([C@H]5C[C@@H](Nc6cnn(C)c(=O)c6Cl)CN(C)C5)cc4)CC3)CC2)ccc1C1CCC(=O)NC1=O (stereo partly drawn) [Compound 223]
- DC50 [1]: < 1 nM
- DC50 [2]: < 1 nM
- GI50 [3]: 4.4 nM

SMILES: CN1C[C@H](Nc2cnn(C)c(=O)c2Cl)C[C@H](c2ccc(C(=O)N3CCC4(CC3)CCN(c3ccc(C5CCC(=O)NC5=O)c(F)c3)CC4)cc2)C1 (stereo partly drawn) [Compound 228, 3-[4-[3-[4-[(3R,5R)-5-[(5-chloro-1-methyl-6-oxo-pyridazin-4-yl)amino]-1-methyl-3-piperidyl]benzoyl]-3,9-diazaspiro[5.5]undecan-9-yl]-2-fluoro-phenyl]piperidine-2,6-dione]
- DC50 [1]: < 1 nM
- DC50 [2]: < 1 nM
- GI50 [3]: 0.9 nM

SMILES: Cc1c(N[C@@H]2C[C@H](c3ccc(C(=O)N4CCC5(CC4)CCN(c4ccc(C6CCC(=O)NC6=O)c(F)c4)CC5)cc3)CN(C)C2)cnn(C)c1=O (stereo partly drawn) [Compound 229, 3-[4-[3-[4-[(3R,5R)-5-[(1,5-dimethyl-6-oxo-pyridazin-4-yl)amino]-1-methyl-3-piperidyl]benzoyl]-3,9-diazaspiro[5.5]undecan-9-yl]-2-fluoro-phenyl]piperidine-2,6-dione]
- DC50 [1]: < 1 nM
- DC50 [2]: < 1 nM
- GI50 [3]: 0.7 nM

SMILES: CN1C[C@H](Nc2cnn(C)c(=O)c2Cl)C[C@H](c2ccc(C(=O)N3CCC4(CCC(c5ccc(C6CCC(=O)NC6=O)cc5F)CC4)CC3)cc2)C1 (stereo partly drawn) [Compound 231]
- DC50 [1]: 1 to 30 nM
- DC50 [2]: < 1 nM
- GI50 [3]: 7.3 nM

SMILES: COc1cc(N2CCC3(CCN(C(=O)c4ccc([C@H]5C[C@@H](Nc6cnn(C)c(=O)c6Cl)CN(C)C5)cc4)CC3)CC2)ccc1C1CCC(=O)NC1=O (stereo partly drawn) [Compound 232]
- DC50 [1]: 1 to 30 nM
- DC50 [2]: < 1 nM
- GI50 [3]: 5.2 nM

SMILES: CN1C[C@H](Nc2cnn(C)c(=O)c2Cl)C[C@H](c2ccc(C(=O)N3CCC4(CC3)CCN(c3ccc(C5CCC(=O)NC5=O)nc3)CC4)cc2)C1 (stereo partly drawn) [Compound 233]
- DC50 [1]: 1 to 30 nM
- DC50 [2]: < 1 nM
- GI50 [3]: 5.5 nM

SMILES: Cc1cc(N2CCC3(CCN(C(=O)c4ccc([C@H]5C[C@@H](Nc6cnn(C)c(=O)c6Cl)CN(C)C5)cc4)CC3)CC2)c(F)cc1C1CCC(=O)NC1=O (stereo partly drawn) [Compound 242]
- DC50 [1]: > 30 nM
- DC50 [2]: 1 to 30 nM
- GI50 [3]: > 100 nM

SMILES: Cc1cc(N2CCC3(CCN(C(=O)c4ccc([C@H]5C[C@@H](Nc6cnn(C)c(=O)c6Br)CN(C)C5)cc4)CC3)CC2)c(F)cc1C1CCC(=O)NC1=O (stereo partly drawn) [Compound 243]
- DC50 [1]: > 30 nM
- DC50 [2]: 1 to 30 nM
- GI50 [3]: > 100 nM

SMILES: Cc1cc(C2CCC(=O)NC2=O)ccc1N1CCC2(CCN(C(=O)c3ccc([C@H]4C[C@@H](Nc5cnn(C)c(=O)c5Cl)CN(C)C4)cc3)CC2)CC1 (stereo partly drawn) [Compound 250]
- DC50 [1]: < 1 nM
- DC50 [2]: < 1 nM
- GI50 [3]: 3.7 nM

SMILES: CN1C[C@H](Nc2cnn(C)c(=O)c2Cl)C[C@H](c2ccc(C(=O)N3CCC4(CC3)CCN(c3ccc(OC5CCC(=O)NC5=O)cc3)CC4)cc2)C1 (stereo partly drawn) [Compound 362]
- DC50 [1]: 1 to 30 nM
- DC50 [2]: < 1 nM
- GI50 [3]: 33.3 nM

SMILES: CN1C[C@H](Nc2cnn(C)c(=O)c2Br)C[C@H](c2ccc(C(=O)N3CCC4(CC3)CCN(c3ccc(OC5CCC(=O)NC5=O)cc3)CC4)cc2)C1 (stereo partly drawn) [Compound 363]
- DC50 [1]: 1 to 30 nM
- DC50 [2]: < 1 nM
- GI50 [3]: 5.7 nM

SMILES: CN1CC(Nc2cnn(C)c(=O)c2Br)CC(c2ccc(C(=O)N3CCC4(CC3)CCN(c3ccc(C5CCC(=O)NC5=O)cc3)CC4)cc2)C1 (stereo not drawn) [Compound 437]
- GI50 [3]: 0.3 nM
